For one molecule, IC50 results are on record in publication PMC9029050, “The Effectiveness of Isoplumbagin and Plumbagin in Regulating Amplitude, Gating Kinetics, and Voltage-Dependent Hysteresis of erg-mediated K^+ Currents” (Biomedicines, 2022).

This data set has as its system T1, erg-mediated K+ channel (Kerg, KV11).
T1 construct: gene Kcnh2; native channel in GH3 pituitary tumor cells
Briefly: whole-cell patch clamp of native IK(erg) in GH3 cells. It counts as cell-based. (In general: The patch-clamp technique gives a direct electrical read-out from membranes.)

On to `CC1=CC(=O)c2cccc(O)c2C1=O` [isoPLB, 8-hydroxy-2-methylnaphthalene-1,4-dione], for which the midpoint of inhibition, the IC50, lay at 2400 nM.
